This note sets out measurements from patent US20200399222A1, “PICOLINAMIDES AS FUNGICIDES” (Dow AgroSciences LLC, priority 2018, published 2020).

Holding throughout (assay type): in vivo
In assay [1] the test system is Phakopsora pachyrhizi. The assay is described as follows: Asian soybean rust (PHAKPA) disease control on soybean seedlings. The note with it: High volume application at 25 ppm; for pest or weed control at 25 ppm: Phakopsora pachyrhizi. As to the method:
Example C: Evaluation of Fungicidal Activity: Asian Soybean Rust (Phakopsora pachyrhizi; Bayer Code […]) Technical grades of materials were dissolved in acetone, which were then mixed with nine volumes of water containing 0.011% Tween 20. The fungicide solutions were applied onto soybean seedlings using an automated booth sprayer to run-off. All sprayed plants were allowed to air dry prior to further handling. Soybean plants (variety Williams 82) were grown in soil-less Metro mix, with one plant per pot. Two week old seedlings were used for testing. Plants were inoculated either 3 days prior to or 1 day after fungicide treatments. Plants were incubated for 24 h in a dark dew room at 22° C. and 100% relative humidity then transferred to a growth room at 23° C. for disease to develop. Disease severity was assessed on the sprayed leaves.

The subject of assay [2] is Puccinia triticina. The assay is described as follows: Wheat brown rust (PUCCRT) disease control on wheat seedlings. The conditions noted are these: High volume application, 100 ppm. An outline of the steps:
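Yuma wheat seedlings (first leaf emerged) sprayed to run-off with compound in acetone plus nine volumes water containing 110 ppm Triton X-100, or track-sprayed as EC formulations with 0.1% Trycol 5941. Rust spores inoculated before or after treatment; overnight dark dew, 22 °C, 100% RH, then greenhouse at 24 °C.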

In assay [3] the test system is Zymoseptoria tritici. The assay can be described thus: Leaf blotch of wheat (SEPTTR) disease control on wheat seedlings. The note with it: High volume application, 100 ppm.
Where [4] appears, read: 24 h, 1 day protectant, read-out: PHAKPA 1DP (1 Day Protectant) disease control.
[5] abbreviates: 72 h, 3 day curative, read-out: PHAKPA 3DC (3 Day Curative) disease control.
Setting [6] is: 24 h, 1 Day Protectant, read-out: PUCCRT disease control rating, 1DP.
Setting [7] is: 72 h, 3 Day Curative, read-out: PUCCRT disease control rating, 3DC.
Setting [8] is: 24 h, 1 Day Protectant, read-out: SEPTTR disease control rating, 1DP.
The mark [9] stands for this setting: 72 h, 3 Day Curative, read-out: SEPTTR disease control rating, 3DC.

Where two headings read alike, the source gives them in different places.

`CCCC(=O)Oc1c(OC)ccnc1C(=O)N[C@@H](C)C(=O)O[C@@H](C)[C@@H](C)c1ccccc1C` [Example 279]: the pest or weed control at 25 ppm in assay [1] (setting [4]) and in assay [1] (setting [5]) was > 80% in each case.
As to `COc1ccnc(C(=O)N[C@H](C(=O)O[C@@H](C)[C@@H](C)c2ccc(F)cc2C)C(C)C)c1OC(C)=O` [Example 184], the pest or weed control at 25 ppm in assay [1] (setting [4]) and in assay [1] (setting [5]) was > 80% in each case.
For `COc1ccnc(C(=O)N[C@@H](C)C(=O)O[C@@H](C)[C@@H](C)c2ccc(F)cc2)c1OC(=O)C(C)C` [Example 229], the “PHAKPA 1DP (1 Day Protectant) disease control” value (from here on “PHAKPA 1DP”) in assay [1] (1 day protectant) is “D (≤0)”. The “PHAKPA 3DC (3 Day Curative) disease control” value (“PHAKPA 3DC” for short) in assay [1] (3 day curative) is given as “D (≤0)”.
As for `COc1ccc([C@@H](C)[C@@H](C)OC(=O)[C@@H](NC(=O)c2nccc(OC)c2OC(=O)C(C)C)C(C)C)c(C)c1` [Example 217], the pest or weed control at 25 ppm in assay [1] (setting [4]) is < 80%; in assay [1] (setting [5]), < 0%.
With `COc1ccnc(C(=O)N[C@H](C(=O)O[C@@H](C)[C@@H](C)c2ccc(F)cc2C)C(C)C)c1OC(=O)C(C)C` [Example 209], the “PHAKPA 1DP” value in assay [1] (1 day protectant) is on record as “A (>80)”. In assay [1] (3 day curative), the “PHAKPA 3DC” value is reported as “A (>80)”.
Turning to `COc1ccnc2c(=O)n([C@@H](C)C(=O)O[C@@H](C)[C@@H](C)c3ccccc3C)c(=O)oc12` [Example 285], the pest or weed control at 25 ppm in assay [1] (setting [4]) and in assay [1] (setting [5]) was > 80% in each case.
Consider `COc1ccnc(C(=O)N[C@H](C(=O)O[C@@H](C)[C@H](C)c2ccc(F)cc2C)C(C)C)c1OC(C)=O` [Example 185], for which the pest or weed control at 25 ppm in assay [1] (setting [4]) and in assay [1] (setting [5]) was < 0% each time.
Take `COc1ccnc(C(=O)N[C@H](C)C(=O)O[C@@H](C)[C@H](C)c2ccccc2C)c1OC(C)=O` [Example 194]: the pest or weed control at 25 ppm in assay [1] (setting [4]) and in assay [1] (setting [5]) was < 0% throughout.
Consider `COc1ccnc(C(=O)N[C@H](C(=O)O[C@@H](C)[C@@H](C)c2ccc(F)cc2)C(C)C)c1OC(C)=O` [Example 187], for which the pest or weed control at 25 ppm in assay [1] (setting [4]) was > 80%; in assay [1] (setting [5]), < 0%.
For `COc1ccc([C@H](C)[C@H](C)OC(=O)CNC(=O)c2nccc(OC)c2OC(=O)C(C)C)c(C)c1` [Example 200], in assay [1] (3 day curative), the “PHAKPA 3DC” value is listed as “B (≤80)”. The pest or weed control at 25 ppm in assay [1] (setting [4]) is < 80%.
In the case of `COc1ccnc(C(=O)N[C@@H](C)C(=O)O[C@@H](C)[C@@H](C)c2ccccc2C)c1OCOC(=O)C(C)C` [Example 284], the pest or weed control at 25 ppm in assay [1] (setting [4]) and in assay [1] (setting [5]) was > 80% each time.
For `COc1ccnc(C(=O)N[C@@H](C)C(=O)O[C@H](C)[C@H](C)c2ccc(F)cc2)c1OC(=O)C(C)C` [Example 226], the pest or weed control at 25 ppm in assay [1] (setting [4]) was < 0%; in assay [1] (setting [5]), < 80%.
`COc1ccc([C@H](C)[C@H](C)OC(=O)[C@@H](NC(=O)c2nccc(OC)c2OC(=O)C(C)C)C(C)C)c(C)c1` [Example 213]: the pest or weed control at 25 ppm in assay [1] (setting [4]) was > 80%; in assay [1] (setting [5]), < 80%.
Consider `COc1ccnc(C(=O)N[C@H](C(=O)O[C@@H](C)[C@H](C)c2ccccc2C)C(C)C)c1OC(C)=O` [Example 186], for which the pest or weed control at 25 ppm in assay [1] (setting [4]) and in assay [1] (setting [5]) was < 80% throughout.
As to `COc1ccnc(C(=O)NCC(=O)O[C@@H](C)[C@@H](C)c2ccc(F)cc2C)c1OC(=O)C(C)C` [Example 221], the “PHAKPA 1DP” value in assay [1] (1 day protectant) is reported as “D (≤0)”. Moreover, in assay [1] (3 day curative), the “PHAKPA 3DC” value is “D (≤0)”.
`COc1ccnc(C(=O)N[C@H](C(=O)O[C@@H](C)[C@H](C)c2ccccc2C)C(C)C)c1OC(=O)C(C)C` [Example 211]: the figures for the pest or weed control at 25 ppm in assay [1] (setting [4]) and in assay [1] (setting [5]) were < 80% and < 0%, respectively.
In the same order, the values of `COc1ccnc(C(=O)NCC(=O)O[C@@H](C)[C@@H](C)c2ccc(F)cc2)c1OC(=O)C(C)C` [Example 199] are < 0% and < 0%.
In the same order, the values of `COc1ccc([C@@H](C)[C@@H](C)OC(=O)[C@@H](NC(=O)c2nccc(OC)c2OC(C)=O)C(C)C)c(C)c1` [Example 193] are < 80% and < 0%.
In the case of `COc1ccnc(C(=O)NCC(=O)O[C@@H](C)[C@@H](C)c2ccc(F)cc2C)c1OC(=O)C(C)C` [Example 196], in assay [1] (1 day protectant), the “PHAKPA 1DP” value was “A (>80)”. Besides, in assay [1] (3 day curative), the “PHAKPA 3DC” value is “B (≤80)”.
On to `CCC(=O)Oc1c(OC)ccnc1C(=O)N[C@@H](C)C(=O)O[C@@H](C)[C@@H](C)c1ccccc1C` [Example 278], for which the pest or weed control at 25 ppm in assay [1] (setting [4]) and in assay [1] (setting [5]) was > 80% in each case.
On to `COc1ccnc(C(=O)N[C@H](C(=O)O[C@@H](C)[C@@H](C)c2ccc(F)cc2C)C(C)C)c1OC(=O)C(C)C` [Example 208], for which the “PHAKPA 1DP” value in assay [1] (1 day protectant) is “A (>80)”. Moreover, in assay [1] (3 day curative), the “PHAKPA 3DC” value was “D (≤0)”.
As to `COc1ccnc(C(=O)N[C@H](C(=O)O[C@H](C)[C@H](C)c2ccc(F)cc2C)C(C)C)c1OC(C)=O` [Example 189], the pest or weed control at 25 ppm in assay [1] (setting [4]) is > 80%; in assay [1] (setting [5]), < 80%.
As for `COc1ccc([C@H](C)[C@H](C)OC(=O)[C@H](C)NC(=O)c2nccc(OC)c2OC(=O)C(C)C)c(C)c1` [Example 230], the “PHAKPA 1DP” value in assay [1] (1 day protectant) is recorded as “D (≤0)”. The “PHAKPA 3DC” value in assay [1] (3 day curative) is on record as “D (≤0)”.
As for `COc1ccnc(C(=O)N[C@H](C(=O)O[C@@H](C)[C@@H](C)c2ccc(F)cc2)C(C)C)c1OC(=O)C(C)C` [Example 212], the pest or weed control at 25 ppm in assay [1] (setting [4]) and in assay [1] (setting [5]) was < 80% each time.
In the case of `COc1ccnc(C(=O)N[C@@H](C)C(=O)O[C@H](C)[C@@H](C)c2ccccc2C)c1OC(=O)C(C)C` [Example 225], the pest or weed control at 25 ppm in assay [1] (setting [4]) and in assay [1] (setting [5]) was < 0% throughout.
For `COc1ccnc(C(=O)NCC(=O)O[C@@H](C)[C@H](C)c2ccccc2C)c1OC(=O)C(C)C` [Example 198], the pest or weed control at 25 ppm in assay [1] (setting [4]) and in assay [1] (setting [5]) was < 0% throughout.
With `COc1ccnc(C(=O)N[C@@H](C)C(=O)O[C@@H](C)[C@@H](C)c2ccccc2C)c1OC(=O)c1ccccc1` [Example 282], the pest or weed control at 25 ppm in assay [1] (setting [4]) and in assay [1] (setting [5]) was > 80% throughout.
On to `COc1ccnc(C(=O)N[C@@H](C)C(=O)O[C@H](C)[C@@H](C)c2ccc(F)cc2C)c1OC(C)=O` [Example 181], for which the results for the pest or weed control at 25 ppm in assay [1] (setting [4]) and in assay [1] (setting [5]) were < 80% and < 0%, respectively.
In the same order, the values of `COc1ccnc(C(=O)N[C@H](C(=O)O[C@@H](C)[C@H](C)c2ccc(F)cc2C)C(C)C)c1OC(=O)C(C)C` [Example 210] are < 0% and < 0%.
For the compound `COc1ccnc(C(=O)N[C@@H](C)C(=O)O[C@@H](C)[C@@H](C)c2ccccc2)c1O` [Example 171], the pest or weed control at 100 ppm in assay [2] (setting [6]) was > 80%; in assay [2] (setting [7]), > 80%; in assay [3] (setting [8]), < 80%; in assay [3] (setting [9]), < 80%.
Consider `COc1cc(F)ccc1[C@@H](C)[C@@H](C)OC(=O)[C@H](C)NC(=O)c1nccc(OC)c1O` [Example 173], for which the pest or weed control at 100 ppm in assay [2] (setting [6]) was > 80%; in assay [2] (setting [7]), < 80%; in assay [3] (setting [8]), < 80%; in assay [3] (setting [9]), < 80%.
On to `COc1ccnc(C(=O)N[C@H](C)C(=O)O[C@@H](C)[C@@H](C)c2ccc(F)cc2)c1O` [Example 151], for which the pest or weed control at 100 ppm in assay [2] (setting [6]) was < 80%; in assay [2] (setting [7]) it was < 0%; in assay [3] (setting [8]), < 80%; in assay [3] (setting [9]), < 80%.
For `COc1ccnc(C(=O)N[C@@H](C)C(=O)O[C@H](C)[C@H](C)c2c(C)cc(F)cc2C)c1O` [Example 169], the pest or weed control at 100 ppm in assay [2] (setting [6]), in assay [2] (setting [7]), in assay [3] (setting [8]) and in assay [3] (setting [9]) was > 80% throughout.
Regarding `COc1ccnc(C(=O)N[C@@H](C)C(=O)O[C@H](C)[C@H](C)c2ccccc2C(F)(F)F)c1O` [Example 161], the pest or weed control at 100 ppm in assay [2] (setting [6]) is < 0%; in assay [2] (setting [7]), < 0%; in assay [3] (setting [8]) it was < 80%; in assay [3] (setting [9]) it was < 80%.
Take `COc1ccc([C@H](C)[C@H](C)OC(=O)[C@@H](C)NC(=O)c2nccc(OC)c2O)c(C)c1` [Example 152]: the pest or weed control at 100 ppm in assay [2] (setting [6]) was > 80%; in assay [2] (setting [7]), < 80%; in assay [3] (setting [8]), < 80%; in assay [3] (setting [9]), < 80%.
As to `COc1ccnc(C(=O)N[C@H](C(=O)O[C@@H](C)[C@@H](C)c2ccc(F)cc2)C(C)C)c1O` [Example 141], the pest or weed control at 100 ppm is > 80% in assay [2] (setting [6]), < 80% in assay [2] (setting [7]), > 80% in assay [3] (setting [8]) and < 80% in assay [3] (setting [9]).
